Tested on: platelets
Test: Rate of platelet superoxide production during oscillatory shear stress (EPR with CAT1H spin probe) in platelet rich plasma, before and after supplementation
Format: in vivo, Human
Settings: 24 healthy volunteers; measured before and 10 hours after supplementation; Provex CV single or double daily dose, aspirin 325 mg; randomized, single-blind, cross-over study
Protocol: Human venous blood was collected via a low-pressure protocol. A manual blood pressure cuff was applied to the arm with a maximum pressure of 40 mmHg. The first sodium citrate vacutainer (75 USP Units, 4 mL) was discarded, and three more were then filled. Blood was centrifuged at 100 g for 19 minutes with no active braking mechanism. Centrifuged blood was then allowed to sit for 20 to 30 minutes. […] An initial 30 μL sample was taken via glass capillary tube for a baseline reading. The SSC was started, and an initial, 5 point kinetic sample was measured. […]
Amplitude readings were recalculated into μM, and a graph depicting μM/min was prepared. […]
24 healthy volunteers were supplemented with the test composition (Provex CV®) at two different dosages (single or double daily dose) or aspirin (325 mg) in a randomized, single-blind, cross-over study. The rate of superoxide production during shear stress was measured before and 10 hours after supplementation.

For CC(=O)Oc1ccccc1C(=O)O [aspirin], the “inhibition of platelet activation (rate of superoxide production during shear stress)” value was “no effect observed”.

From patent US10656142B2, “Measuring antiplatelet activity” (Melaleuca, Inc., priority 2014, dated 2020)
